The text below walks through data of patent US20230067929A1, “HETEROCYCLIC DERIVATIVES, PHARMACEUTICAL COMPOSITIONS AND THEIR USE IN THE TREATMENT, AMELIORATION OR PREVENTION OF CANCER” (Tolremo Therapeutics AG, priority 2018, published 2023).

In this test the test system is A375 cells. Kind of test: A375 cell immunofluorescence assay (with 1 μM S1152 and 0.5 μM S1008), EC50. The following applies: 1 μM S1152 + 0.5 μM S1008, one day, ratio FL2/FL3 staining (sc-365823 antibody). The test is classed as cell-based. As for the experimental part: One thousand four hundred A375 cells were seeded in each well of a 384 well microplate. One day later they were treated with 1 μM S1152 (Selleckchem) in dimethyl sulfoxide, 0.5 μM S1008 (Selleckchem) and dose ranges of invention compounds for one day in Dulbecco's Modified Eagle's Medium supplemented with 10% fetal calf serum and 2 mM (2S)-2-amino-4-carbamoylbutanoic acid. Wells were incubated with 4% polyoxymethylene (Sigma Aldrich 158127) at ambient temperature. After ten minutes, polyoxymethylene was replaced with phosphate-buffered saline. After one minute phosphate-buffered saline was replaced with 0.2% polyethylene glycol octylphenyl ether in phosphate-buffered saline. After ten minutes at ambient temperature 0.2% polyethylene glycol octylphenyl ether in phosphate-buffered saline was replaced with 1% aminoethanoic acid in phosphate-buffered saline. […] After one hour at 37° C., the solution was replaced with phosphate-buffered saline twice. Phosphate-buffered saline was replaced with 2 μg/ml A-11029 (Invitrogen) in 0.05% polyoxyethylene (20) sorbitan monolaurate in phosphate-buffered saline. […] After one hour at ambient temperature in the dark, signal in wells was measured with a Acumen Cellista. 3,8-Diamino-5-[3-(diethylmethylammonio)propyl]-6-phenylphenanthridinium diiodide-positive objects were defined in FL3 (565-600 nm) with a perimeter between 50-800 μm and a total intensity of 10000-1000000 FLU. Signal in FL2 (500-530 nm) was measured in defined objects. A normalized ratio of total ln FL2 over total ln FL3 staining was log transformed. A non-linear regression (variable slope, 4 parameters) was used to calculate EC50 values using GraphPad Prism (Version 7.0d).
Take `O=S(=O)(N1CCCC(c2nc(Nc3cccc(F)c3)cc(-c3cccnc3)n2)C1)C(F)(F)F` (stereo not shown): the EC50 was > 10 µM.

With `CCN1CCCC(c2nc(Nc3cccc(F)c3)cc(-c3cccnc3)n2)C1` (stereo not shown), the half-maximal effective concentration (EC50) is > 10 µM. For `CC(C)CN1CCCC(c2nc(Nc3cccc(F)c3)cc(-c3cccnc3)n2)C1` (stereo not shown) the value was > 10 µM; for `CC(=O)N1CCCC(c2nc(Nc3cccc(C)c3)cc(-c3cncc4[nH]ccc34)n2)C1` (stereo not shown), < 1 µM; for `CC(=O)N1CC(c2ccccc2)CC(c2nc(Nc3cccc(F)c3)cc(-c3cccnc3)n2)C1` (stereo not shown), < 1 µM.

Turning to `CC(=O)N1CCCC(c2nc(Nc3cncc(F)c3)cc(-c3cccnc3)n2)C1` (stereo not shown), the EC50 lay in the range of 1 to 10 µM. The value for `CC(=O)N1C[C@H](c2nc(Nc3cncc(C)c3)cc(-c3cncc4[nH]ccc34)n2)CC[C@@H]1C` was < 1 µM; that for `CC(=O)N1CCCC(c2nc(Nc3cc(F)cc(F)c3)cc(-c3c(C)noc3C)n2)C1` (stereo not shown) was 1 to 10 µM; that for `CC(=O)N1CCCC(c2cc(Nc3cccc(F)c3)cc(-c3c(C)noc3C)n2)C1` (stereo not shown) was 1 to 10 µM. The value for `CC(=O)N1CCCC(c2nc(Nc3cccnc3)cc(-c3cncc4[nH]ccc34)n2)C1` (stereo not shown) was > 10 µM; that for `CCC(=O)N1CCCC(c2nc(Nc3cccc(F)c3)cc(-c3cnn(C)c3)n2)C1` (stereo not shown) was > 10 µM; that for `COc1cncc(-c2cc(Nc3ccc(OCCOCCOCCNC(C)=O)cc3)nc(C3CCCN(C(C)=O)C3)n2)c1` (stereo not shown) was > 10 µM. On to `CC(=O)Nc1ccc(-c2cc(Nc3cccc(F)c3)nc(C3CCCN(C(C)=O)C3)n2)cc1` (stereo not shown), for which the EC50 is < 1 µM. For the molecule `CCC(=O)N1CCCC(c2nc(Nc3cccc(F)c3)cc(-c3ccncc3)n2)C1` (stereo not shown), the concentration giving a half-maximal response (EC50) was > 10 µM. On to `CCC(=O)N1CCCC(c2nc(Nc3cccc(F)c3)cc(Nc3ncccn3)n2)C1` (stereo not shown), for which the EC50 fell in the range of 1 to 10 µM. Turning to `CCC(=O)N1CCCC(c2nc(Nc3cccc(F)c3)cc(-c3sc(CC)nc3C)n2)C1` (stereo not shown), the EC50 was > 10 µM. For `CCC(=O)N1CCCC(c2nc(Nc3cccc(F)c3)cc(-c3cccc(C(=O)NC)c3)n2)C1` (stereo not shown) the value was > 10 µM; for `CCC(=O)N1CCCC(c2nc(C)cc(Nc3cccc(F)c3)n2)C1` (stereo not shown), > 10 µM. As to `CC(=O)N1C[C@H](c2nc(Nc3ccncc3)cc(-c3cccnc3)n2)CC[C@@H]1C`, the EC50 is < 1 µM. For `CC(=O)N1CC(c2cc(Nc3cccc(F)c3)cc(-c3cccnc3)n2)=CCC1C` (stereo not shown), the EC50 lay within 1 to 10 µM.

For the molecule `CCC(=O)N1CCCC(c2nc(Nc3cccc(F)c3)cc(-c3cccc(-c4nnc(C)o4)c3)n2)C1` (stereo not shown), the EC50 was in the range of 1 to 10 µM. The value for `CC(=O)N1CCCC(c2nc(Nc3cncc(C)n3)cc(-c3cncnc3)n2)C1` (stereo not shown) was > 10 µM; that for `CCC(=O)N1CCCC(c2nc(Nc3cccc(F)c3)cc(-c3cnccc3OC)n2)C1` (stereo not shown) was 1 to 10 µM. For `CC(=O)N1CCCC(c2nc(Nc3cccc(F)c3)cc(-c3ccc(N4CCOCC4)nc3)n2)C1` (stereo not shown) the value was 1 to 10 µM. The value for `CC(=O)N1CCCC(c2nc(Nc3ccccn3)cc(-c3cccnc3)n2)C1` (stereo not shown) was > 10 µM; that for `CCC(=O)N1CCCC(c2nc(Nc3cccc(F)c3)cc(-c3cncc(C)c3)n2)C1` (stereo not shown) was 1 to 10 µM; that for `CC(=O)N1CCCC(c2nc(Nc3ncccn3)cc(-c3cccnc3)n2)C1` (stereo not shown) was > 10 µM. `COc1cncc(-c2cc(Nc3cccc(OCCOCCOCCNC(C)=O)c3)nc(C3CCCN(C(C)=O)C3)n2)c1` (stereo not shown): the 50% effective concentration (EC50) fell in the range of 1 to 10 µM. For `CC(=O)N1C[C@H](c2nc(Nc3cccc(F)c3)cc(-c3cccnc3)n2)CC[C@@H]1C(F)(F)F` the value was < 1 µM; for `CC(=O)N1C[C@@H](c2nc(Nc3cccc(F)c3)cc(-c3cncc(O)c3)n2)CC[C@H]1C`, > 10 µM; for `O=C1CCCC2CCC(c3nc(Nc4cccc(F)c4)cc(-c4cccnc4)n3)CN12` (stereo not shown), > 10 µM.

For the molecule `CC(=O)N1CCCC(c2nc(Nc3cccc(F)c3)cc(-c3ccc(C)nc3)n2)C1` (stereo not shown), the EC50 is 1 to 10 µM. As for `CN1CC(c2nc(Nc3cccc(F)c3)cc(-c3cccnc3)n2)CC1=O` (stereo not shown), the half-maximal effective concentration (EC50) was > 10 µM. For `CCC(=O)N1CCCC(c2nc(Nc3cccc(F)c3)cc(C3CCOCC3)n2)C1` (stereo not shown) the value was > 10 µM; for `CC(=O)N1CCCC(c2nc(Nc3ccncc3)cc(-c3cccnc3)n2)C1` (stereo not shown), 1 to 10 µM; for `CC(=O)N1C[C@H](c2nc(Nc3cncc(C)c3)cc(-c3cncnc3)n2)CC[C@@H]1C`, < 1 µM. The value for `O=C(CC(F)(F)F)N1CCCC(c2nc(Nc3cccc(F)c3)cc(-c3cccnc3)n2)C1` (stereo not shown) was > 10 µM; that for `O=C(C(F)F)N1CCCC(c2nc(Nc3cccc(F)c3)cc(-c3cccnc3)n2)C1` (stereo not shown) was > 10 µM. The value for `CCC(=O)N1CCC[C@H](c2nc(Nc3cccc(F)c3)cc(-c3cccnc3)n2)C1` was > 10 µM. Turning to `CCC(=O)N1CCCC(c2nc(Nc3cc(OC)cc(OC)c3)cc(-c3cccnc3)n2)C1` (stereo not shown), the EC50 was 1 to 10 µM. On to `CC(=O)N1CCCC(c2nc(Nc3cccc(C)c3)cc(-c3cccnc3)n2)C1` (stereo not shown), for which the 50% effective concentration (EC50) was < 1 µM. The value for `CC(=O)N1CCCC(c2nc(Nc3cnccn3)cc(-c3cccnc3)n2)C1` (stereo not shown) was > 10 µM.

For the molecule `CCC(=O)N1CCCC(c2nc(Nc3ccc(O)nc3)cc(-c3cccnc3)n2)C1` (stereo not shown), the EC50 is > 10 µM. The value for `CCC(=O)N1CCCC(c2nc(Nc3cccc(F)c3)cc(NC3CCOC3)n2)C1` (stereo not shown) was > 10 µM; that for `CCC(=O)N1CCCC(c2nc(Nc3cccc(F)c3)cc(C3=CCOCC3)n2)C1` (stereo not shown) was > 10 µM. For `COc1cncc(-c2cc(Nc3cncc(C)c3)nc([C@@H]3CC[C@H](C)N(C(C)=O)C3)n2)c1` the value was < 1 µM. The value for `CC(=O)N1CCCC(c2nc(Nc3ccc(C)c(C)c3)cc(-c3cccnc3)n2)C1` (stereo not shown) was < 1 µM.

As for `CC(=O)N1CCCC(c2nc(Nc3ccccn3)cc(-c3cncnc3)n2)C1` (stereo not shown), the EC50 is > 10 µM. For the molecule `CC(=O)N1C[C@H](c2nc(Nc3cccnc3)cc(-c3cccnc3)n2)CC[C@@H]1C`, the EC50 is < 1 µM. The value for `CC(=O)N1CCCC(c2nc(Nc3cccc(F)c3)cc(-c3cncnc3)n2)C1` (stereo not shown) was 1 to 10 µM; that for `CC(=O)N1C[C@H](c2nc(Nc3cccc(F)c3)cc(-c3cccnc3)n2)CC[C@@H]1C` was < 1 µM. For the molecule `CCC(=O)N1CCCC(c2nc(Nc3cccc(F)c3)cc(-c3cc[nH]n3)n2)C1` (stereo not shown), the 50% effective concentration (EC50) is > 10 µM. For `COc1ccc(-c2cc(Nc3cccc(F)c3)nc(C3CCCN(C(C)=O)C3)n2)cc1` (stereo not shown) the value was 1 to 10 µM; for `CC(=O)N1CCCC(c2nc(Nc3cccc(F)c3)cc(-c3ccc(N4CCS(=O)(=O)CC4)nc3)n2)C1` (stereo not shown), > 10 µM.

On to `CC(=O)N1CCCC(c2nc(Nc3cccc(F)c3)cc(-c3cncc(C)c3)n2)C1` (stereo not shown), for which the EC50 was < 1 µM.

`CC(=O)NCCOCCOCCOCC(=O)Nc1ccc(-c2cc(Nc3cccc(F)c3)nc(C3CCCN(C(C)=O)C3)n2)cc1` (stereo not shown): the EC50 is 1 to 10 µM. The value for `CCC(=O)N1CCCC(c2nc(Nc3cccc(F)c3)cc(-c3ccc(NC(C)=O)cc3)n2)C1` (stereo not shown) was 1 to 10 µM.

For `CC(=O)N1CCCC(c2cc(-c3cccnc3)nc(Nc3cccc(F)c3)n2)C1` (stereo not shown), the half-maximal effective concentration (EC50) fell in the range of 1 to 10 µM.

As to `CCC(=O)N1CCCC(c2nc(Nc3cccc(F)c3)cc(-c3cncc(C(=O)NC)c3)n2)C1` (stereo not shown), the EC50 was 1 to 10 µM. For `COc1csc(-c2cc(Nc3cccc(C)c3)nc(C3CCCN(C(C)=O)C3)n2)c1` (stereo not shown) the value was < 1 µM. The value for `CC(=O)N1CCCC(c2nc(Nc3ccncn3)cc(-c3cccnc3)n2)C1` (stereo not shown) was > 10 µM; that for `CC(=O)N1C[C@H](c2nc(Nc3cccc(C)c3)cc(-c3cccnc3)n2)CC[C@@H]1C(F)(F)F` was < 1 µM. Regarding `CC(=O)N1CCCC(c2nc(Nc3cccc(F)c3)cc(-c3cncc(C(=O)N4C[C@@H]5C[C@H]4CO5)c3)n2)C1` (stereo partly shown), the EC50 lay in the range of 1 to 10 µM. For `CC(=O)N1CCCC(c2nc(Nc3cccnc3)cc(-c3cncnc3)n2)C1` (stereo not shown), the EC50 is > 10 µM. Regarding `CC(=O)N1CCCC(c2nc(Nc3cccc(C)c3)cc(-c3cncc4[nH]ncc34)n2)C1` (stereo not shown), the EC50 was < 1 µM.

On to `CC(=O)N1CCCC(c2nc(Nc3cccc(F)c3)nc(-c3ccccc3)n2)C1` (stereo not shown), for which the EC50 lay in the range of 1 to 10 µM. The value for `CC(=O)N1CCCC(c2nc(Nc3cccc(F)c3)cc(N3CCOCC3)n2)C1` (stereo not shown) was > 10 µM; that for `COc1cncc(-c2cc(Nc3cccc(Cl)c3)nc([C@@H]3CCCN(C(C)=O)C3)n2)c1` was < 1 µM; that for `CCC(=O)N1CCCC(c2nc(Nc3cccc(C(F)(F)F)c3)cc(-c3cccnc3)n2)C1` (stereo not shown) was > 10 µM. The value for `COc1cncc(-c2cc(Nc3ccc(C)c(F)c3)nc(C3CCCN(C(C)=O)C3)n2)c1` (stereo not shown) was 1 to 10 µM; that for `CNC(=O)N1CCCC(c2nc(Nc3cccc(F)c3)cc(-c3cccnc3)n2)C1` (stereo not shown) was 1 to 10 µM; that for `CCC(=O)N1CCCC(c2nc(Nc3cccc(F)c3)cc(-c3csc4cnccc34)n2)C1` (stereo not shown) was 1 to 10 µM. The value for `COc1cncc(-c2cc(Nc3ccccc3)nc(C3CCCN(C(C)=O)C3)n2)c1` (stereo not shown) was < 1 µM; that for `CC(=O)N1CCCC(c2nc(Nc3cncc(C)c3)cc(-c3cccnc3)n2)C1` (stereo not shown) was 1 to 10 µM; that for `CCC(=O)N1CCC(c2nc(Nc3cccc(F)c3)cc(-c3cccnc3)n2)C1` (stereo not shown) was > 10 µM.

For `CCC(=O)N1CCCC(c2nc(Nc3cccc(F)c3)cc(-c3ccccn3)n2)C1` (stereo not shown), the EC50 was > 10 µM.

The EC50 is the concentration needed to bring the measured effect to its halfway point.
